These results are taken from patent US10633389B2, “CARM1 inhibitors and uses thereof” (Epizyme, Inc., priority 2013, dated 2020).

This test relates to asymmetric di-methyl PABP1 in RKO cells. In words: RKO methylation assay, In Cell Western (ICW) for asymmetric di-methyl PABP1. As to conditions: Homo sapiens, RKO, Cellular potencies, ICW PABP1me2a. The class given is cell-based. The method in brief: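 RKO cells treated with compound for 48 h at 37 °C, then fixed, permeabilized and immunostained for asymmetric di-methyl PABP1, with DRAQ5 as DNA stain. Infrared 700/800 nm signal ratio normalized to DMSO and 20 μM reference-compound controls; IC50 from triplicate wells.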
Usually IC50 stands for the point on the concentration scale where inhibition reaches its midpoint. With `CNC[C@@H](O)COc1ccc(Cl)c(-c2nc(-c3c(C)noc3C)c(Cl)c(N3Cc4ccncc4C3)n2)c1` [Example 214-3], the IC50 is less than 5 µM.
As to `CNCC(O)COc1cccc(-c2nc(N[C@@H]3CCOC3)c(C)c(-n3nc(C)cc3C)n2)c1` (stereo partly shown) [Example 382-1a], the IC50 is 10 to 20 µM.
The value for `CNCC(O)COc1cccc(-c2nc(-c3c(C)nn(C(C)C)c3C)cc(N(C)C3CCOCC3)n2)c1` (stereo not shown) [Example 496-1a] was less than 5 µM.
Next, `CNC[C@@H](O)COc1ccc(Cl)c(-c2nc(NC[C@H]3COCCN3C(=O)OC(C)C)c(C)c(-c3c(C)noc3C)n2)c1` [Example 134-3]: less than 5 µM; `CCOC(=O)N1CC2(CCCN(c3nc(-c4cccc(OCC(O)CNC)c4)nc(-c4c(C)noc4C)c3C)C2)C1` (stereo not shown) [Example 295-1a]: less than 5 µM; `CNC[C@@H](O)COc1ccc(Cl)c(-c2nc(-c3c(C)noc3C)c(C)c(N3Cc4[nH]nc(C)c4C3)n2)c1` [Example 224-3]: less than 5 µM.
The molecule `CNCC(O)COc1cccc(-c2nc(N[C@@H]3CCOC3)c(C)c(N3CC4CCC(C3)O4)n2)c1` (stereo partly shown) [Example 412-1a] yielded a half-maximal inhibitory concentration (IC50) of 10 to 20 µM.
Consider `CNC[C@@H](O)COc1ccc(Cl)c(-c2nc(-c3c(C)noc3C)c(C)c(N3CCC4(C3)CN(C3CC3)C4)n2)c1` [Example 178-3], for which the concentration for half-maximal inhibition (IC50) was less than 5 µM.
Take `CNCC(O)COc1cc(N)cc(-c2nc(NC3CCOCC3)c(C)c(-c3c(C)noc3C)n2)c1` (stereo not shown) [Example 74-1a]: the 50% inhibitory concentration (IC50) was in the range of 5 to 10 µM.
`CNCC(O)COc1cccc(-c2nc(-c3c(C)noc3C)c(C)c(N3CCC4(CC3)CN(C3CC3)C4)n2)c1` (stereo not shown) [Example 294-1a] registered a concentration for half-maximal inhibition (IC50) of less than 5 µM.
In the case of `CNC[C@@H](O)COc1ccc(Cl)c(-c2nc(N[C@H]3C[C@@](C)(OC)C3)c(C)c(-c3c(C)noc3C)n2)c1` [Example 110-3], the IC50 is less than 5 µM.
On to `CNCC(O)COc1cccc(-c2nc(OCC3CCN(C(=O)N(C)C)CC3)c(C)c(-c3c(C)noc3C)n2)c1` (stereo not shown) [Example 285-1a], for which the 50% inhibitory concentration (IC50) was less than 5 µM.
Next, `CCC(=O)NC1CN(c2nc(-c3cccc(OCC(O)CNC)c3)nc(-c3c(C)noc3C)c2C)C1` (stereo not shown) [Example 14-3]: less than 5 µM; `CNCC(O)COc1cccc(-c2nc(-c3cn(C)cn3)cc(N(C)C3CCOCC3)n2)c1` (stereo not shown) [Example 501-1a]: less than 5 µM.
The molecule `CNC[C@H](O)COc1ccc(Cl)c(-c2nc(-c3c(C)noc3C)c(C)c(N3CCC4(CC3)CN(C(=O)OC)C4)n2)c1` [Example 85-3] yielded an IC50 of less than 5 µM.
The value for `CNCC(O)COc1cccc(-c2nc(Nc3cnc(OC)nc3)cc(-c3c(C)noc3C)n2)c1` (stereo not shown) [Example 72-1a] was less than 5 µM; that for `CNCC(O)COc1cccc(-c2nc(-c3c(C)noc3C)cc(N3CCN(C4CCOCC4)CC3)n2)c1` (stereo not shown) [Example 166-1a] was less than 5 µM.
The value for `CNC[C@@H](O)COc1cccc(-c2nc(N[C@@H]3CCN(C4CC4)C[C@@H]3F)c(Cl)c(-c3c(C)noc3C)n2)c1` [Example 68-3] was less than 5 µM; that for `CNCC(O)COc1cccc(-c2nc(N[C@@H]3CCOC3)c(C)c(N3CCN(CC(F)F)[C@H](C)C3)n2)c1` (stereo partly shown) [Example 471-1a] was less than 5 µM; that for `CNC[C@@H](O)COc1ccc(Cl)c(-c2nc(-c3c(C)noc3C)c(C)c(N3Cc4cc(Br)cnc4C3)n2)c1` [Example 248-3] was less than 5 µM.
`CNCC(O)COc1cccc(-c2nc(SC)c(C)c(-c3c(C)noc3C)n2)c1` (stereo not shown) [Example 53-1a]: the IC50 fell in the range of 10 to 20 µM.
Next, `CNC[C@@H](O)COc1ccc(Cl)c(-c2nc(-c3c(C)noc3C)c(C)c(N3CC4(CCN(C(=O)OC)CC4)C3)n2)c1` [Example 109-3]: less than 5 µM; `CCS(=O)(=O)N1CC2(CN(c3nc(-c4cccc(OCC(O)CNC)c4)nc(-c4c(C)noc4C)c3C)C2)C1` (stereo not shown) [Example 16-3]: less than 5 µM.
The value for `CNCC(O)COc1cccc(-c2nc(N[C@@H]3CCOC3)c(C)c(N3CC[C@H](N(C)C)C3)n2)c1` (stereo partly shown) [Example 368-1a] was less than 5 µM; that for `CNCC(O)COc1cccc(-c2nc(-c3ccc(N4CCOCC4)nn3)cc(N(C)C3CCOCC3)n2)c1` (stereo not shown) [Example 512-1a] was 5 to 10 µM.
The value for `CNC[C@@H](O)COc1ccc(Cl)c(-c2nc(-c3c(C)noc3C)c(C)c(N3Cc4cnn(CC(F)(F)F)c4C3)n2)c1` [Example 265-3] was less than 5 µM; that for `CNCC(O)COc1cccc(-c2nc(-c3c(C)noc3C)c(C)c(N3CCN(C(=O)OC)C(C(F)F)C3)n2)c1` (stereo not shown) [Example 17-3] was less than 5 µM.
In turn, `CNCC(O)COc1cccc(-c2nc(-c3cnc(C)n3C)cc(N(C)C3CCOCC3)n2)c1` (stereo not shown) [Example 517-1a] gave a 50% inhibitory concentration (IC50) of 5 to 10 µM.
Molecule `CNCC(O)COc1cccc(-c2nc(-c3c(C)noc3C)c(C)c(N3C[C@H](C)O[C@@H](C)C3)n2)c1` (stereo partly shown) [Example 199-1a] came in with an IC50 of less than 5 µM.
Consider `CNCC(O)COc1cccc(-c2nc(OCC3CCN(C4CC4)CC3)c(C)c(-c3c(C)noc3C)n2)c1` (stereo not shown) [Example 303-1a], for which the half-maximal inhibitory concentration (IC50) is less than 5 µM.
Next, `CNC[C@@H](O)COc1ccc(Cl)c(-c2nc(-c3c(C)noc3C)c(C)c(N3Cc4cnn(C5CC5)c4C3)n2)c1` [Example 270-3]: less than 5 µM.
Molecule `CNC[C@H](O)COc1ccc(Cl)c(-c2nc(NCC3COCCO3)c(C)c(-c3c(C)noc3C)n2)c1` (stereo partly shown) [Example 96-3] returned an IC50 of less than 5 µM.
Next, `CNCC(O)COc1cccc(-c2nc(N[C@@H]3CCN(C(=O)OC)C[C@H]3F)c(C)c(-c3c(C)noc3C)n2)c1` (stereo partly shown) [Example 228-1a]: less than 5 µM.
The value for `CNCC(O)COc1cccc(-c2nc(N[C@@H]3CCOC3)c(C)c(N3CCC(S(C)(=O)=O)CC3)n2)c1` (stereo partly shown) [Example 441-1a] was 5 to 10 µM; that for `CNCC(O)COc1cccc(-c2nc(N[C@@H]3CCOC3)c(C)c(-c3cn[nH]c3)n2)c1` (stereo partly shown) [Example 338-1a] was 10 to 20 µM; that for `CNCC(O)COc1cccc(-c2nc(-c3c(C)noc3C)cc(N3CC[C@H](S(C)(=O)=O)C3)n2)c1` (stereo partly shown) [Example 69-1a] was 10 to 20 µM.
In turn, `CNCC(O)COc1cccc(-c2nc(NC3CCN(C(=O)OC(C)(C)C)C[C@H]3F)c(C)c(-c3c(C)noc3C)n2)c1` (stereo partly shown) [Example 208-1a] registered an IC50 of less than 5 µM.
Molecule `CNCC(O)COc1cccc(-c2nc(N3CCN4C(=O)OC[C@@H]4C3)cc(N(C)C3CCOCC3)n2)c1` (stereo partly shown) [Example 576-1a] returned an IC50 of 10 to 20 µM.
The value for `CNCC(O)COc1cccc(-c2nc(NC3CCOC3)c(C)c(N3CCN[C@@H](C)C3)n2)c1` (stereo partly shown) [Example 351-1a] was 5 to 10 µM.
The value for `CNCC(O)COc1cc(Cl)cc(-c2nc(-c3cnc4ccccc4n3)c(C)c(N(C)C3CCOCC3)n2)c1` (stereo not shown) [Example 612-1a] was 10 to 20 µM.
In the case of `CNCC(O)COc1cccc(-c2nc(N[C@H]3C[C@H](O)C3)cc(-c3c(C)noc3C)n2)c1` (stereo partly shown) [Example 43-1a], the IC50 was in the range of 10 to 20 µM.
Next, `CNCC(O)COc1cccc(-c2nc(-c3nc(C)cs3)cc(N(C)C3CCOCC3)n2)c1` (stereo not shown) [Example 624-1a]: 10 to 20 µM; `CNCC(O)COc1cccc(-c2nc(N[C@@H]3CCOC3)c(C)c(N3CCN(CC(=O)N(C)C)CC3)n2)c1` (stereo partly shown) [Example 391-1a]: 10 to 20 µM; `CNCC(O)COc1cccc(-c2nc(N3CCOCC3)c(F)c(N(C)C3CCOCC3)n2)c1` (stereo not shown) [Example 500-1a]: less than 5 µM.
For `CNCC(O)COc1cccc(-c2nc(NC3C4COCC43)c(C)c(-c3c(C)noc3C)n2)c1` (stereo not shown) [Example 212-1a], the IC50 was less than 5 µM.
The value for `CNC[C@@H](O)COc1ccc(Cl)c(-c2nc(-c3c(C)noc3C)c(C)c(C3CC3)n2)c1` [Example 205-3] was less than 5 µM; that for `CCOC(=O)N1CCCC[C@@H]1CNc1nc(-c2cc(OC[C@H](O)CNC)ccc2Cl)nc(-c2c(C)noc2C)c1Cl` [Example 153-3] was less than 5 µM.
For the molecule `CNCC(O)COc1ccc(Cl)c(-c2nc(O[C@H]3CCN(C(=O)OC)[C@@H](C)C3)c(C)c(-c3c(C)noc3C)n2)c1` (stereo partly shown) [Example 36-3], the IC50 was less than 5 µM.
For the molecule `CNCC(O)COc1cccc(-c2nc(N[C@@H]3CCOC3)c(C)c(-c3cncnc3)n2)c1` (stereo partly shown) [Example 350-1a], the half-inhibitory concentration (IC50) was in the range of 10 to 20 µM.
In turn, `CNCC(O)COc1cccc(-c2nc(-c3c(C)noc3C)cc(-c3c(C)noc3C)n2)c1` (stereo not shown) [Example 3-1a] yielded a concentration for half-maximal inhibition (IC50) of 10 to 20 µM.
The value for `CNC[C@@H](O)COc1ccc(Cl)c(-c2nc(-c3c(C)noc3C)c(C)c(N3Cc4nn(C)c(C)c4C3)n2)c1` [Example 252-3] was less than 5 µM; that for `CNCC(O)COc1cccc(-c2nc(NC3CC(C(=O)OC)C3)cc(-c3c(C)noc3C)n2)c1` (stereo not shown) [Example 45-1a] was less than 5 µM.
Next, `CNCC(O)COc1cc(Cl)cc(-c2nc(-c3ccc(N(C)C)nc3)c(C)c(N(C)C3CCOCC3)n2)c1` (stereo not shown) [Example 614-1a]: 10 to 20 µM; `CNCC(O)COc1cccc(-c2nc(-c3c(C)noc3C)c(C)c(N3CCO[C@H](CN(C)C(=O)OC)C3)n2)c1` (stereo partly shown) [Example 127-1a]: less than 5 µM; `CNCC(O)COc1cccc(-c2nc(C(=O)NC3CCN(C)CC3)cc(-c3c(C)noc3C)n2)c1` (stereo not shown) [Example 160-1a]: 10 to 20 µM.
As to `CNC[C@@H](O)COc1ccc(Cl)c(-c2nc(N[C@@H]3CCN(C4CC4)[C@H](C)C3)c(C)c(-c3c(C)noc3C)n2)c1` [Example 139-3], the IC50 is less than 5 µM.
The value for `CNC[C@H](O)COc1ccc(F)c(-c2nc(N[C@H]3CCN(C4CC4)C[C@H]3F)c(C)c(-c3c(C)noc3C)n2)c1` [Example 99-3] was less than 5 µM.
Next, `CNCC(O)COc1cccc(-c2nc(-c3c(C)noc3C)c(F)c(N3CCN(C(=O)OC)CC3)n2)c1` (stereo not shown) [Example 97-1a]: less than 5 µM; `CNCC(O)COc1cccc(-c2nc(-c3cncnc3)cc(-c3c(C)noc3C)n2)c1` (stereo not shown) [Example 8-1a]: 10 to 20 µM; `CNCC(O)COc1cccc(-c2nc(-c3c(C)noc3C)c(C)c(N3C[C@@H]4C[C@H]3CN4C)n2)c1` (stereo partly shown) [Example 84-1a]: less than 5 µM.
The value for `CNC[C@@H](O)COc1ccc(Cl)c(-c2nc(N[C@H]3CCN(C)C[C@H]3F)c(Cl)c(-c3c(C)noc3C)n2)c1` [Example 208-3] was less than 5 µM.
